According to publication PMC5526996, “Structural basis for dolichylphosphate mannose biosynthesis” (Nature Communications, 2017):

Key:
[1] = target: T1, PfDPMS (Pyrococcus furiosus, UniProt Q8U4M3); assay: thermal shift, heat precipitation with SDS-PAGE densitometry; assay type: binding; details: detergent-solubilised; compared with no Dol-P
T1 construct: gene PF0058; E. coli C41(DE3) membranes, DDM or LDAO solubilised, mainly monomer
T1 sequence (Q8U4M3 1-352): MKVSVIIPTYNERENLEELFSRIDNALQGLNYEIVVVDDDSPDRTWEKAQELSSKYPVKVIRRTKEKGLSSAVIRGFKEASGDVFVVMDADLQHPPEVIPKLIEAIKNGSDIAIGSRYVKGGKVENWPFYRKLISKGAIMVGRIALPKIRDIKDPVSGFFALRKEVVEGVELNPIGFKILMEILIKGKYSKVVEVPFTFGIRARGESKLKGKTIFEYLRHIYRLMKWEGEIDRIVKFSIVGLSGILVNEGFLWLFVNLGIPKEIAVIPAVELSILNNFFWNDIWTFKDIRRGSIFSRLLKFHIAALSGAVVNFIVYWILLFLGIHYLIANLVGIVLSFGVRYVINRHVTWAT

[2] = target: T1, PfDPMS; assay: X-ray crystallography; assay type: binding; details: formed in reaction mixture at 60 °C; GDP bound, metal departed
[3] = target: T1, PfDPMS; assay: phosphate-coupled glycosyltransferase assay (malachite green); assay type: biochemical; details: 0.23 mM donor, Dol-P acceptor, 75 °C, pH 7.5

How did the ΔTm [1] turn out when CC(C)=CCC/C(C)=C/CC/C(C)=C/CC/C(C)=C\CC/C(C)=C\CC/C(C)=C\CC/C(C)=C\CC/C(C)=C\CC/C(C)=C\CC/C(C)=C\CC[C@H](C)CCOP(=O)(O)O [Dol55-P] was run?
The ΔTm was 13.3 °C.

CC(C)=CCC/C(C)=C/CC/C(C)=C/CC/C(C)=C\CC/C(C)=C\CC/C(C)=C\CC/C(C)=C\CC/C(C)=C\CC/C(C)=C\CC/C(C)=C\CC[C@H](C)CCOP(=O)(O)O[C@@H]1O[C@H](CO)[C@@H](O)[C@H](O)[C@@H]1O [Dol55-P-Man] was tested. Which X-ray crystallography [2] did it give?
The X-ray crystallography was 5MM1 (PfDPMS•GDP•Dol55-P-Man).

For Nc1nc2c(ncn2[C@@H]2O[C@H](COP(=O)(O)OP(=O)(O)O[C@H]3O[C@H](CO)[C@@H](O)[C@H](O)[C@H]3O)[C@@H](O)[C@H]2O)c(=O)[nH]1 [GDP-Glc], which “phosphate-coupled glycosyltransferase assay (malachite green)” value [3] is on record?
Its value is “four-fold higher product formation with GDP-Man compared with GDP-Glc”.
